Laboratory results published in US11446269B2, “Methods of reducing or preventing oxidation of small dense LDL or membrane polyunsaturated fatty acids” (Amarin Pharmaceuticals Ireland Limited, priority 2014, dated 2022).

Legend:
[1] = Glucose-induced membrane lipid peroxidation (LOOH, CHOD-iodide assay) in DLPC/cholesterol multilamellar vesicles (Example 4); type: biochemical; conditions: glucose 200 mg/dL
Protocol: Vitamin E (α-tocopherol) was also purchased from Sigma-Aldrich and prepared in ethanol at 1.0 mM (ε=3.06×10^4 M^−1 cm^−1 at 294 nm) just prior to experimental use. […] All test compounds were further diluted in ethanol or aqueous buffer as needed. Glucose was prepared in saline buffer (0.5 mM HEPES, 154 mM NaCl, pH 7.3) at 11.0 mM (200 mg/dL). CHOD-iodide color reagent (stock) was prepared, with slight modification, as described by from El-Saadani et al. (J. […] Samples were shell-dried under nitrogen gas and placed under vacuum for 1 h to remove residual solvent. […] Lipid suspensions were then vortexed for 3 min at ambient temperature to form MLVs. All MLV samples were subjected to time-dependent autoxidation by incubating at 37° C. in an uncovered, shaking water bath. This method allows lipid peroxidation to occur gradually without requiring the use of exogenous initiators. Small aliquots (5-100 μL) of each sample were removed, immediately following MLV preparation (0 hour) and after exposing samples to oxidative conditions for 72 or 96 hour, and combined with 1.0 mL of activated CHOD-iodide color reagent. Aliquot volume was reduced with each successive time point to ensure that spectrophotometric readings were within the optimal adsorption range. Test samples were covered and incubated in darkness at room temperature for at least 4 hr. Sample absorbances were then measured against a CHOD blank at 365 nm using a Beckman DU-640 spectrophotometer. The CHOD colorimetric assay is based on the oxidation of iodide (I^−) by lipid hydroperoxide (LOOH) to form triiodide (I3^−), the quantity of which is directly proportional to the amount of LOOH present in the lipid sample. The molar absorptivity (c) of I3^− is 2.46×10^4 M^−1 cm^−1 at 365 nm. […] The concentration of glucose selected was consistent with previous experimental studies of hyperglycemia under controlled laboratory conditions or observed in well-defined animal models of Type II diabetes following a glucose challenge. […] Values in FIG. 1 are mean±S.D. (N=6). EPA inhibited the peroxidative effects of glucose by 88% and 86% at 72 and 96 hours, respectively, which was highly significant (p<0.001) as compared to glucose treatment alone. […] Overall ANOVA—0 hour data: p=0.6655, F=0.4185; 72 hour data: p<0.0001, F=428.72; 96 hour data: p<0.0001, F=322.01.

[2] = X-ray diffraction of cholesterol domains in POPC/cholesterol model membranes, C/P 1.5:1 (Example 9); conditions: drug-to-phospholipid mole ratio 1:30, C/P 1.5:1
Protocol: Multilamellar vesicles (MLVs) were prepared as binary mixtures that include palmitoyloleoylphosphatidylcholine (POPC) (1.0 mg total phospholipid per sample) and cholesterol at an elevated cholesterol-to-phospholipid (C/P) mole ratio of 1.5:1. […] Samples were shell-dried under nitrogen gas and placed under vacuum for 3 hours to remove residual solvent at room temperature. After desiccation, each sample was resuspended in saline buffer (0.5 mM HEPES, 154 mM NaCl, pH 7.3) to yield a final phospholipid concentration of 2.5 mg/mL. Lipid suspensions were then vortexed for 3 minutes at ambient temperature to form MLVs.
Briefly, a 100 μL aliquot of each MLV preparation (containing 250 μg MLV) was transferred to a Lucite® sedimentation cell fitted with an aluminum foil substrate designed to collect MLVs into a single membrane pellet upon centrifugation. Samples were then loaded into a Sorvall AH-629 swinging bucket rotor (DuPont Corp., Wilmington, Del.) and centrifuged at 35,000 g, 5° C., for 90 minutes.
After centrifugal orientation, sample supernatants were aspirated and aluminum foil substrates, each supporting a single membrane pellet, were removed from the sedimentation cells. Sample pellets were dried for 5-10 minutes at ambient conditions, mounted onto curved glass supports, and placed in hermetically-sealed, brass or glass containers (for immediate analysis or temporary storage, respectively). All x-ray diffraction experiments were conducted at 20° C., 74% relative humidity. The latter was established by exposing membrane samples to saturated solutions of […] (K2C4H4O6.½H2O) for at least 1 hour prior to experimental analysis.
Oriented membrane samples were aligned at grazing incidence with respect to a collimated, mono-chromatic CuKα x-ray beam (Kα1 and Kα2 unresolved; λ=1.54 Å) produced by a Rigaku Rotaflex RU-200, high-brilliance microfocus generator (Rigaku-MSC, The Woodlands, Tex.) as previously described (Mason et al., Biophys. J., vol. 55(4), pages 769-778 (1989)). The samples were initially subjected to x-ray diffraction analysis at least 12 hours after formation of the membrane pellets and retested for up to several days. Analytical x-rays were generated by electron bombardment of a rotating copper anode and are filtered through a thin nickel foil to provide monochromatic radiation (λ=1.54 Å). Collimation of the x-ray beam was achieved using a single Franks mirror. […]
The d-space for any given membrane multi bilayer is a measurement of the unit cell periodicity of the membrane lipid bilayer (e.g., the distance from the center of one lipid bilayer to the next including surface hydration), and is calculated from Bragg's Law, hλ=2d sin θ, where h is the diffraction order, λ is the wavelength of the x-ray radiation (1.54 Å), d is the membrane lipid bilayer unit cell periodicity, and θ is the Bragg angle equal to one-half the angle between the incident beam and scattered beam.
The presence of cholesterol domains in a given membrane sample results in the production of distinct Bragg (diffraction) peaks having singular periodicity values of 34 and 17 Å (typically referred to as first- and second-order cholesterol domain peaks). Under the specific temperature and relative humidity conditions established for these experiments, the second-order, 17 Å cholesterol domain peak was well-delineated from other, neighboring cholesterol and phospholipid diffraction peaks and was thus used to quantitate relative cholesterol domain peak intensity. […]

human sdLDL [3] = test: Copper-induced sdLDL oxidation, TBARS (Example 7); type: biochemical; conditions: 1 hr; for effect on sdLDL oxidation: 10 μM, vs vehicle-treated controls
Protocol: (§1) An experiment to study the antioxidant effect of EPA in LDL and small dense […] performed. […] Fenofibrate, gemfibrozil, and niacin were purchased from Sigma-Aldrich. […] Vitamin E was also incubated with sample aliquots as a positive control.

sdLDL = test: Glucose-induced sdLDL oxidation, MDA/TBARS (Example 10); type: biochemical, human; conditions: glucose 200 mg/dL; for effect on glucose-induced sdLDL oxidation: 10.0 μM
Protocol: Vitamin E (α-tocopherol) purchased from Sigma-Aldrich was prepared in ethanol at 1.0 mM (ε=3.06×10^4 M^−1 cm^−1 at 294 nm) prior to experimental use. Test compounds were further diluted in ethanol or aqueous buffer as needed. Phosphate Buffered Saline (PBS) purchased from Sigma-Aldrich was prepared in double distilled water at 10 mM (138 mM NaCl, 2.7 mM KCl, pH 7.4). […] Lipid oxidation was measured by the colorimetric detection of malondialdehyde (MDA), a marker of oxidative stress.

unfractionated LDL [4] = test: Copper-induced oxidation of unfractionated LDL, TBARS (Example 7); type: biochemical, human; conditions: 10 μM, 1 hr, vs vehicle-treated controls
Protocol: as §1

unfractionated LDL [5] = test: Copper-induced oxidation of unfractionated LDL, TBARS after 2 hr (Example 6); type: biochemical, human; conditions: 1.0 μM to 10.0 μM (data not shown)
Protocol: Venous blood was collected from healthy volunteers into vacutainer tubes containing sodium EDTA. […] Plasma and lipoprotein fractions were maintained at 4° C. and protected from excessive exposure to light. Prior to oxidation experiments, EDTA was removed from the lipoprotein fraction using PD-10 desalting columns (GE Healthcare, Piscataway N.J.). After equilibration of the column with phosphate buffered saline (PBS), 2.5 mL of the lipoprotein fraction was loaded on the column and the flow-through discarded. The lipoprotein was then eluted with 3 mL of PBS. The LDL fractions were further diluted with PBS to obtain a 100 μg/mL apoB100 concentration.

[6] = Small angle x-ray diffraction of glucose- and peroxidation-induced cholesterol domain formation (Example 4); conditions: any time point (0, 72, 96 h), 1:30, glucose 200 mg/dL, vs control
Protocol: After centrifugal orientation, sample supernatants were aspirated and aluminum foil substrates, each supporting a single membrane pellet, were removed from the sedimentation cells. […] All x-ray diffraction experiments were conducted at 20° C., 74% relative humidity.
Oriented membrane samples were aligned at grazing incidence with respect to a collimated, mono-chromatic CuKα x-ray beam (Kα1 and Kα2 unresolved; λ=1.54 Å) produced by a Rigaku Rotaflex RU-200, high-brilliance microfocus generator (Rigaku-MSC, The Woodlands, Tex.) as previously described (Mason et al., Biophys. J., vol. 55(4), pages 769-778 (1989)).
Routines written in Origin 8.6 (OriginLab Corporation, Northampton, Mass.) were used to determine total peak area (associated with all diffraction peaks in a given pattern) against which the second-order cholesterol domain peak was normalized.

human sdLDL [7] = test: Copper-induced sdLDL oxidation, TBARS after 2 hr (Example 6); type: biochemical
Protocol: Venous blood was collected from healthy volunteers into vacutainer tubes containing sodium EDTA. Plasma was separated by centrifugation at 3000 g for 25 min at 4° C. and adjusted to a density of 1.020 g/mL with KBr. Triglyceride-rich lipoproteins (TGRL) and LDL fractions were then isolated by sequential centrifugation at 70,000 rpm at 4° C. in a Beckman LE-80 ultracentrifuge using a Beckman 50.4Ti rotor (Beckman Coulter, Inc., Fullerton, Calif.). The TGRL fraction (with a relative density of <1.020) was aspirated from the top of the centrifugate and discarded, leaving an LDL-enriched infranate (with a relative density of 1.020 to 1.063). The plasma LDL fraction was further fractionated into LDL1, LDL2, LDL3, and LDL4 (sdLDL) subfractions with relative densities of 1.020 to 1.035, 1.035 to 1.050, 1.050 to 1.063, and 1.063 to 1.075, respectively. The sdLDL subfraction was retained for additional experimentation. Plasma and lipoprotein fractions were maintained at 4° C. and protected from excessive exposure to light. Prior to oxidation experiments, EDTA was removed from the lipoprotein fraction using PD-10 desalting columns (GE Healthcare, Piscataway N.J.). After equilibration of the column with phosphate buffered saline (PBS), 2.5 mL of the lipoprotein fraction was loaded on the column and the flow-through discarded. The lipoprotein was then eluted with 3 mL of PBS. The LDL fractions were further diluted with PBS to obtain a 100 μg/mL apoB100 concentration.
LDL and sdLDL subfractions (0.6 mL each) were incubated with either 10 μL vehicle (ethanol) or 10 μL drug stock solution for 30 min to 1 hr at 37° C. Oxidation was initiated by the addition of 10 μM CuSO4. After 2 hr, 100 μL aliquots were removed from each subfraction and combined with 1.0 mL thiobarbituric acid (0.5%), 10 μL trichloroacetic acid (5%), 10 μL BHT (5 mg/mL in methanol), and 10 μL EDTA (5 mM). […]. Sample TBARS concentrations were determined spectrophotometrically by measuring sample absorbances against a standard curve derived from the hydrolysis of 1,1,3,3-tetramethoxypropane.

For `CC(C)c1c(C(=O)Nc2ccccc2O)c(-c2ccccc2)c(-c2ccc(F)cc2)n1CC[C@@H](O)C[C@@H](O)CC(=O)O` [ATM, Atorvastatin ortho- (o-) hydroxy (active) metabolite], the “antioxidant effect on glucose-induced LOOH formation” value ([1]; 1.0 μM, 96 hours) was “potent antioxidant effects”.

For `Cc1ccc(C)c(OCCCC(C)(C)C(=O)O)c1` [Gemfibrozil, gemfibrozil], the “% change Vs control (cholesterol domain peak intensity)” value [2] was 10.9 ± 43.3%, the “effect on cholesterol domains” value [2] was “no significant changes in cholesterol domain size” and the “effect on sdLDL oxidation” value (human sdLDL [3]) was “no significant effect”. The “effect on glucose-induced sdLDL oxidation” value (sdLDL) was “did not inhibit” and the “effect on unfractionated LDL oxidation” value (unfractionated LDL [4]) was “no significant effect”.

With `CC1(C)[C@@H](O[C@H]2O[C@H](C(=O)O)[C@@H](O)[C@H](O)[C@H]2O[C@@H]2O[C@H](C(=O)O)[C@@H](O)[C@H](O)[C@H]2O)CC[C@]2(C)[C@H]3C(=O)C=C4[C@@H]5C[C@@](C)(C(=O)O)CC[C@]5(C)CC[C@@]4(C)[C@]3(C)CC[C@@H]12` [Glyc, glycyrrhizin] the “reduction in cholesterol domain peaks vs vehicle” value [2] was 54.9%.

For `CC(C)c1c(C(=O)Nc2ccccc2)c(-c2ccccc2)c(-c2ccc(F)cc2)n1CC[C@@H](O)C[C@@H](O)CC(=O)O` [atorvastatin], the “effect on sdLDL oxidation” value (human sdLDL [3]) was “did not have any significant antioxidant activity”, the “inhibition of sdLDL oxidation (TBARS formation)” value (human sdLDL [3]; each agent at 10 μM, vs vehicle) was 0.1±7% and the “effect on unfractionated LDL oxidation” value (unfractionated LDL [4]) was “did not have any significant antioxidant activity”.

With `Cc1c(C)c2c(c(C)c1O)CC[C@@](C)(CCC[C@H](C)CCC[C@H](C)CCCC(C)C)O2` [vitamin E, α-tocopherol] the “effect on LDL oxidation” value (unfractionated LDL [5]) was “did not inhibit LDL oxidation at any concentration”, the “effect on LOOH formation / lipid peroxidation” value ([1]; 72- and 96-hour time points, 1:30 drug-to-phospholipid mole ratio) was “no significant effect” and the “effect on sdLDL oxidation” value (human sdLDL [3]) was “no significant effect”. The “effect on cholesterol domain formation” value [6] was “no significant effect”, the “effect on glucose-induced sdLDL oxidation” value (sdLDL) was “failed to inhibit sdLDL oxidation” and the “increase in sdLDL oxidation” value (sdLDL; vs glucose-treated controls) was 63%. For the same molecule, the “effect on unfractionated LDL oxidation” value (unfractionated LDL [4]) was “no significant effect”, the “effect on sdLDL oxidation” value (human sdLDL [7]; 1.0 μM to 10.0 μM) was “did not inhibit sdLDL oxidation except at the highest concentration” and the “reduction of TBARS levels” value (human sdLDL [7]; 10.0 μM, 10 μM CuSO4, vs vehicle) was 26%.
